Experimental data taken from PMC11811690 (Angewandte Chemie (International Ed. in English), 2024).
≈ marks a conversion by molar mass, not a printed value. Where “and” joins values, the source holds several entries; their conditions need not be identical. Identical values can stand only once. Like-named read-outs stand apart in the source and are kept apart here.

Key:
[1] = test system: C. crescentus pfhuA_ΔacrAB-nodT; type: cell-based; conditions: disk diffusion, 20 µg per disk, 24 h, 30 °C; permeable and efflux-deficient strain
[2] = test system: M. tuberculosis H37Rv poly-g-GFP; assay: microbe, parasite or virus in culture; type: cell-based; conditions: for IC90: Mycobacterium tuberculosis, H37RV, 240 h, read-out: IC90 Mtb H37Rv-poly-g-GFP, fluorescence read-out
[3] = test system: C. crescentus pfhuA; assay: Inhibition zone (Kirby-Bauer disk diffusion), C. crescentus pfhuA; conditions: 20 µg per disk, 24 h, 30 °C, permeable strain
[4] = test system: C. difficile 630; assay: microbe, parasite or virus in culture; type: cell-based, Clostridioides difficile; conditions: C. difficile 630, anaerobic, overnight, growth suppressed to OD600 < 0.15; for MIC: Clostridioides difficile, read-out: MIC C. difficile
[5] = test system: M. tuberculosis H37Rv poly-g-GFP; assay: microbe, parasite or virus in culture; type: cell-based; conditions: Mycobacterium tuberculosis, 336 h, read-out: MIC Mtb H37Rv-poly-g-GFP, turbidity read-out
[6] = test system: mutant RNAP^R89A; design: method as in PMID 29606590; conditions: transcription assay, mutant versus wild-type RNAP; cited from earlier work
[7] = molecular target: T1, M. tuberculosis RNAP (Mycobacterium tuberculosis, UniProt P9WGY7+P9WGY9); assay: biochemical; conditions: fluorescent run-off transcription assay, triplicate, mean ± s.d.; read-out: IC50 Mtb RNAP, fluorescence read-out
T1 construct: made in house; host or cells: E. coli BL21(DE3) is stated for σA only

[8] = concentration for 90 % inhibition of fluorescence as proxy for growth inhibition, 10 days, 37 °C
[9] = 14 days, 37 °C, turbidity by eye

| Compound | Inhibition zone C. crescentus pfuhAh_∆acrABnodT [1] | IC90 [2] | Inhibition zone C. crescentus pfuhAh [3] | MIC [4] | MIC [5] | increase of IC50 against the mutant RNAP^R89A [6] | IC50 [7] | MIC C. difficile [4] | activity against M. tuberculosis (in words) [2] | IC90 [2, 8] | MIC [5, 9] |
| --- | --- | --- | --- | --- | --- | --- | --- | --- | --- | --- | --- |
| CCc1c(Cl)c(O)c(Cl)c(O)c1C(=O)O[C@H]1[C@H](O)[C@H](OC)[C@H](OC/C2=C\C=C\C[C@H](O)/C(C)=C/[C@H](CC)[C@@H](O[C@@H]3OC(C)(C)[C@@H](OC(=O)C(C)C)[C@H](O)[C@@H]3O)/C(C)=C/C(C)=C/C[C@@H]([C@@H](C)O)OC2=O)O[C@@H]1C [Fdx, fidaxomicin, reference compound] | 311 ± 4 mm2 and 311±4.0 mm2 | 0.5 µg/mL (≈ 0.473 µM) | 126 ± 20 mm2 | < 0.0078 µg/mL | 0.5 µg/mL (≈ 0.473 µM) | > 400 fold | – | – | – | – | – |
| CC[C@H]1/C=C(\C)[C@@H](O)C/C=C/C=C(\CNc2nccs2)C(=O)O[C@H]([C@@H](C)O)C/C=C(C)/C=C(\C)[C@@H]1O[C@@H]1OC(C)(C)[C@@H](OC(=O)C(C)C)[C@H](O)[C@@H]1O [compound 8] | 263 ± 32 mm2 | 16 µg/mL (≈ 21.4 µM) | 81 ± 12 mm2 | 4 to 8 µg/mL (≈ 5.36 to 10.7 µM) | – | – | – | – | – | – | – |
| CC[C@H]1/C=C(\C)[C@@H](O)C/C=C/C=C(\CNc2nc(COc3ccccc3)cs2)C(=O)O[C@H]([C@@H](C)O)C/C=C(C)/C=C(\C)[C@@H]1O[C@@H]1OC(C)(C)[C@@H](OC(=O)C(C)C)[C@H](O)[C@@H]1O [compound 10] | – | 8 µg/mL (≈ 9.38 µM) | – | 1 µg/mL (≈ 1.17 µM) | 4 to 8 µg/mL (≈ 4.69 to 9.38 µM) | – | 170 ± 60 nM | 1 µg/mL (≈ 1.17 µM) | – | – | – |
| CC[C@H]1/C=C(\C)[C@@H](O)C/C=C/C=C(\CNc2nc(-c3ccccc3)cs2)C(=O)O[C@H]([C@@H](C)O)C/C=C(C)/C=C(\C)[C@@H]1O[C@@H]1OC(C)(C)[C@@H](OC(=O)C(C)C)[C@H](O)[C@@H]1O [compound 13] | – | 8 µg/mL (≈ 9.72 µM) | – | 4 µg/mL (≈ 4.86 µM) | 8 to 16 µg/mL (≈ 9.72 to 19.4 µM) | – | 130 ± 50 nM | – | – | – | – |
| CC[C@H]1/C=C(\C)[C@@H](O)C/C=C/C=C(\CNCc2nnc(-c3ccccc3)o2)C(=O)O[C@H]([C@@H](C)O)C/C=C(C)/C=C(\C)[C@@H]1O[C@@H]1OC(C)(C)[C@@H](OC(=O)C(C)C)[C@H](O)[C@@H]1O [compound 16] | 322 ± 26 mm2 | 4 µg/mL (≈ 4.87 µM) | 127 ± 13 mm2 | 4 to 8 µg/mL (≈ 4.87 to 9.73 µM) | 4 µg/mL (≈ 4.87 µM) | – | 420 ± 230 nM | – | – | – | – |
| CC[C@H]1/C=C(\C)[C@@H](O)C/C=C/C=C(\CNCc2nnc(-c3ccc(OC)c(OC)c3Cl)o2)C(=O)O[C@H]([C@@H](C)O)C/C=C(C)/C=C(\C)[C@@H]1O[C@@H]1OC(C)(C)[C@@H](OC(=O)C(C)C)[C@H](O)[C@@H]1O [compound 18] | 200 ± 19 mm2 | 8 µg/mL (≈ 8.73 µM) | 54 ± 8 mm2 | 8 µg/mL (≈ 8.73 µM) | 4 µg/mL (≈ 4.36 µM) | – | – | – | – | – | – |
| CC[C@H]1/C=C(\C)[C@@H](O)C/C=C/C=C(\CNCc2nnc(-c3ccccc3)s2)C(=O)O[C@H]([C@@H](C)O)C/C=C(C)/C=C(\C)[C@@H]1O[C@@H]1OC(C)(C)[C@@H](OC(=O)C(C)C)[C@H](O)[C@@H]1O [compound 20] | 241 ± 40 mm2 | 2 µg/mL (≈ 2.39 µM) | 108 ± 11 mm2 | – | 2 µg/mL (≈ 2.39 µM) | – | – | – | – | – | – |
| CC[C@H]1/C=C(\C)[C@@H](O)C/C=C/C=C(\CNCc2nnc(-c3cc(Cl)cc(Cl)c3)o2)C(=O)O[C@H]([C@@H](C)O)C/C=C(C)/C=C(\C)[C@@H]1O[C@@H]1OC(C)(C)[C@@H](OC(=O)C(C)C)[C@H](O)[C@@H]1O [compound 21] | 73 ± 11 mm2 | 8 µg/mL (≈ 8.98 µM) | – | 4 µg/mL (≈ 4.49 µM) | 2 µg/mL (≈ 2.24 µM) | – | – | – | – | – | – |
| CC[C@H]1/C=C(\C)[C@@H](O)C/C=C/C=C(\CNc2ccc(C#N)cc2)C(=O)O[C@H]([C@@H](C)O)C/C=C(C)/C=C(\C)[C@@H]1O[C@@H]1OC(C)(C)[C@@H](OC(=O)C(C)C)[C@H](O)[C@@H]1O [compound 24] | – | – | – | 4 µg/mL (≈ 5.23 µM) | – | – | – | – | showed activity | 16 µg/mL (≈ 20.9 µM) | 16 µg/mL (≈ 20.9 µM) |
| CC[C@H]1/C=C(\C)[C@@H](O)C/C=C/C=C(\CNc2ccc(C#N)cn2)C(=O)O[C@H]([C@@H](C)O)C/C=C(C)/C=C(\C)[C@@H]1O[C@@H]1OC(C)(C)[C@@H](OC(=O)C(C)C)[C@H](O)[C@@H]1O [compound 25] | – | – | – | – | – | – | – | 1 µg/mL (≈ 1.31 µM) | – | 16 µg/mL (≈ 20.9 µM) | 8 µg/mL (≈ 10.4 µM) |
| CC[C@H]1/C=C(\C)[C@@H](O)C/C=C/C=C(\CNc2cccc(CN)c2)C(=O)O[C@H]([C@@H](C)O)C/C=C(C)/C=C(\C)[C@@H]1O[C@@H]1OC(C)(C)[C@@H](OC(=O)C(C)C)[C@H](O)[C@@H]1O [compound 27] | 119 ± 15 mm2 | – | – | > 32 µg/mL | – | – | > 100000 nM | – | – | 32 µg/mL (≈ 41.6 µM) | – |
| CC[C@H]1/C=C(\C)[C@@H](O)C/C=C/C=C(\CNc2cccc(CNC(=O)c3ccc(OC)c(OC)c3Cl)c2)C(=O)O[C@H]([C@@H](C)O)C/C=C(C)/C=C(\C)[C@@H]1O[C@@H]1OC(C)(C)[C@@H](OC(=O)C(C)C)[C@H](O)[C@@H]1O [compound 30] | – | – | – | > 32 µg/mL | – | – | 620 ± 290 nM | – | – | 16 µg/mL (≈ 16.5 µM) | – |
